Data set [1] in a line: Cytotoxicity against human Gingival fibroblasts at 20 uM by SRB assay. The conditions noted are these: read-out: INH. Details: species or system Gingival fibroblast.
Data set [2] deals with HT-29. As to the kind of experiment: Antiproliferative activity against human HT-29 cells at 20 uM by SRB assay. It is filed as functional. In general terms: In SRB staining, fixed cells bind dye roughly in proportion to their protein.
For data set [3], the system named is KB. In words: Antiproliferative activity against human KB cells by SRB assay. It is filed as functional, cell-based.
Data set [4] relates to MCF7. In words: Antiproliferative activity against human MCF7 cells by SRB assay. The data set is classed as functional, cell-based.
The test system of data set [5] is HeLa. As to the kind of experiment: Antiproliferative activity against human HeLa cells by SRB assay. The data set is classed as functional, cell-based.
In data set [6] the test system is HT-29. In words: Antiproliferative activity against human HT-29 cells by SRB assay. It is filed as functional, cell-based.

By inhibition is commonly meant the change of the read-out against control, counted positive when it falls. Lower therefore signals a response near the control. One may read the IC50 as the midpoint of a concentration-inhibition curve. A high value points to a need for much substance. As to `CC(C)[C@@H]1C[C@@]2(C)[C@@H]3CC[C@@](C)(C[C@@H]31)[C@@H]2NC=O` (relative stereo), the cytotoxicity at 20 µM in data set [1] was found to be 25%. For the same compound, in data set [2], 20 µM produced 35% inhibition. The IC50 in data set [3] amounted to 1200 nM; in data set [4], 8200 nM; in data set [5] it was 70 nM.
Consider `CC[C@@]1(O)C(=O)OCc2c1cc1n(c2=O)Cc2cc3ccccc3nc2-1` [CAMPTOTHECIN], for which the IC50 is 0.7 nM in data set [6], 20 nM in data set [3], 3.3 nM in data set [4] and 130 nM in data set [5].
As to `CC(C)[C@@H]1C[C@@]2(C)[C@@H]3CC[C@](C)(NC=O)[C@H]2C[C@@H]31` (relative stereo), the cytotoxicity at 20 µM in data set [1] is 65%. The IC50 in data set [6] is 6800 nM; in data set [3] it was 2400 nM; in data set [4], 650 nM; in data set [5], 130 nM.

(Values after ChEMBL document CHEMBL3085753, “Bridged tricyclic sesquiterpenes from the tubercle nudibranch Phyllidia coelestis Bergh” (J Nat Prod, 2013).)
